Data as given in PubChem BioAssay (NCI).
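Briefly, cells in 96-well plates were exposed to five compound concentrations for 48 h, and endpoints were estimated by linear interpolation. Definition used: TGI = concentration required for complete inhibition of growth.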

Key:
Assay in all cases: NCI-60 cell line screen, 48 h
A549 NSCLC = tested on: A549 NSCLC
HCT-116 colon = tested on: HCT-116 colon
LOX IMVI melanoma = tested on: LOX IMVI melanoma
HOP-62 NSCLC = tested on: HOP-62 NSCLC
SNB-75 CNS = tested on: SNB-75 CNS
KM12 colon = tested on: KM12 colon
SF-268 CNS = tested on: SF-268 CNS
MCF7 breast = tested on: MCF7 breast
HCC-2998 colon = tested on: HCC-2998 colon
UO-31 renal = tested on: UO-31 renal
786-0 renal = tested on: 786-0 renal
DU-145 prostate = tested on: DU-145 prostate
HOP-92 NSCLC = tested on: HOP-92 NSCLC
PC-3 prostate = tested on: PC-3 prostate
SK-MEL-28 melanoma = tested on: SK-MEL-28 melanoma
NCI-H460 lung = tested on: NCI-H460 lung
MDA-MB-231 breast = tested on: MDA-MB-231 breast
T-47D breast = tested on: T-47D breast
NCI-H23 lung = tested on: NCI-H23 lung
SK-MEL-2 melanoma = tested on: SK-MEL-2 melanoma
HT29 colon = tested on: HT29 colon
M14 melanoma = tested on: M14 melanoma
SK-OV-3 ovarian = tested on: SK-OV-3 ovarian
ACHN renal = tested on: ACHN renal
CCRF-CEM leukemia = tested on: CCRF-CEM leukemia
SNB-19 CNS = tested on: SNB-19 CNS
A498 renal = tested on: A498 renal
MDA-N = tested on: MDA-N
SK-MEL-5 melanoma = tested on: SK-MEL-5 melanoma
SR leukemia = tested on: SR leukemia
SN12C renal = tested on: SN12C renal
UACC-257 melanoma = tested on: UACC-257 melanoma
OVCAR-5 ovarian = tested on: OVCAR-5 ovarian
UACC-62 melanoma = tested on: UACC-62 melanoma
HCT-15 colon = tested on: HCT-15 colon
IGROV1 ovarian = tested on: IGROV1 ovarian
RXF 393 renal = tested on: RXF 393 renal
HL-60(TB) leukemia = tested on: HL-60(TB) leukemia
OVCAR-4 ovarian = tested on: OVCAR-4 ovarian
MALME-3M melanoma = tested on: MALME-3M melanoma
RPMI-8226 leukemia = tested on: RPMI-8226 leukemia
EKVX NSCLC = tested on: EKVX NSCLC
SW-620 colon = tested on: SW-620 colon
SF-539 CNS = tested on: SF-539 CNS
TK-10 renal = tested on: TK-10 renal
CAKI-1 renal = tested on: CAKI-1 renal
OVCAR-3 ovarian = tested on: OVCAR-3 ovarian
MOLT-4 leukemia = tested on: MOLT-4 leukemia
K-562 leukemia = tested on: K-562 leukemia
BT-549 breast = tested on: BT-549 breast
NCI/ADR-RES ovarian = tested on: NCI/ADR-RES ovarian
SF-295 CNS = tested on: SF-295 CNS
U251 CNS = tested on: U251 CNS
HS 578T breast = tested on: HS 578T breast
COLO 205 colon = tested on: COLO 205 colon
MDA-MB-435 = tested on: MDA-MB-435
NCI-H226 lung = tested on: NCI-H226 lung
OVCAR-8 ovarian = tested on: OVCAR-8 ovarian
NCI-H522 lung = tested on: NCI-H522 lung
KM20L2 colon = tested on: KM20L2 colon
SNB-78 CNS = tested on: SNB-78 CNS
LXFL 529 NSCLC = tested on: LXFL 529 NSCLC
DLD-1 colon = tested on: DLD-1 colon
DMS 273 small cell lung = tested on: DMS 273 small cell lung
DMS 114 small cell lung = tested on: DMS 114 small cell lung

## CC(C)(C)c1cc(OCc2nn3c(Cc4ccccc4)nnc3s2)c(Cl)cc1OCc1nn2c(Cc3ccccc3)nnc2s1
A549 NSCLC
  TGI: > 100 µM
HCT-116 colon
  TGI: > 100 µM
LOX IMVI melanoma
  TGI: > 100 µM
HOP-62 NSCLC
  TGI: > 100 µM
SNB-75 CNS
  TGI: > 100 µM
KM12 colon
  TGI: > 100 µM
SF-268 CNS
  TGI: > 100 µM
MCF7 breast
  TGI: > 100 µM
HCC-2998 colon
  TGI: > 100 µM
UO-31 renal
  TGI: > 100 µM
786-0 renal
  TGI: > 100 µM
DU-145 prostate
  TGI: > 100 µM
HOP-92 NSCLC
  TGI: 52.9 µM
PC-3 prostate
  TGI: > 100 µM
SK-MEL-28 melanoma
  TGI: > 100 µM
NCI-H460 lung
  TGI: > 100 µM
MDA-MB-231 breast
  TGI: > 100 µM
T-47D breast
  TGI: > 100 µM
NCI-H23 lung
  TGI: > 100 µM
SK-MEL-2 melanoma
  TGI: > 100 µM
HT29 colon
  TGI: > 100 µM
M14 melanoma
  TGI: > 100 µM
SK-OV-3 ovarian
  TGI: > 100 µM
ACHN renal
  TGI: > 100 µM
CCRF-CEM leukemia
  TGI: > 100 µM
SNB-19 CNS
  TGI: > 100 µM
A498 renal
  TGI: > 100 µM
MDA-N
  TGI: > 100 µM
SK-MEL-5 melanoma
  TGI: 26.6 µM
SR leukemia
  TGI: > 100 µM
SN12C renal
  TGI: > 100 µM
UACC-257 melanoma
  TGI: 93.1 µM
OVCAR-5 ovarian
  TGI: > 100 µM
UACC-62 melanoma
  TGI: > 100 µM
HCT-15 colon
  TGI: > 100 µM
IGROV1 ovarian
  TGI: > 100 µM
RXF 393 renal
  TGI: > 100 µM
HL-60(TB) leukemia
  TGI: 97.9 µM
OVCAR-4 ovarian
  TGI: > 100 µM
MALME-3M melanoma
  TGI: 36.6 µM
RPMI-8226 leukemia
  TGI: > 100 µM
EKVX NSCLC
  TGI: > 100 µM
SW-620 colon
  TGI: > 100 µM
SF-539 CNS
  TGI: > 100 µM
TK-10 renal
  TGI: > 100 µM
CAKI-1 renal
  TGI: > 100 µM
OVCAR-3 ovarian
  TGI: 60.4 µM
MOLT-4 leukemia
  TGI: > 100 µM
K-562 leukemia
  TGI: > 100 µM
BT-549 breast
  TGI: > 100 µM
NCI/ADR-RES ovarian
  TGI: > 100 µM
SF-295 CNS
  TGI: > 100 µM
U251 CNS
  TGI: > 100 µM
HS 578T breast
  TGI: > 100 µM
COLO 205 colon
  TGI: > 100 µM
MDA-MB-435
  TGI: > 100 µM
NCI-H226 lung
  TGI: > 100 µM
OVCAR-8 ovarian
  TGI: > 100 µM
NCI-H522 lung
  TGI: > 100 µM

## O=[N+]([O-])C=C(c1ccc(Cl)cc1)c1ccc(Cl)cc1
A549 NSCLC
  TGI: 46.7 µM
HCT-116 colon
  TGI: 31.5 µM
LOX IMVI melanoma
  TGI: 25.5 µM
HOP-62 NSCLC
  TGI: 37.5 µM
SNB-75 CNS
  TGI: 39.7 µM
KM12 colon
  TGI: 30.1 µM
HCC-2998 colon
  TGI: 34.4 µM
UO-31 renal
  TGI: 27.2 µM
786-0 renal
  TGI: 30.6 µM
KM20L2 colon
  TGI: 38.9 µM
SNB-78 CNS
  TGI: 44 µM
SK-MEL-28 melanoma
  TGI: 31 µM
NCI-H460 lung
  TGI: 36.7 µM
NCI-H23 lung
  TGI: 25.6 µM
SK-MEL-2 melanoma
  TGI: 57 µM
HT29 colon
  TGI: 35.5 µM
M14 melanoma
  TGI: 30.5 µM
ACHN renal
  TGI: 30.5 µM
CCRF-CEM leukemia
  TGI: 67.7 µM
SNB-19 CNS
  TGI: 36.5 µM
A498 renal
  TGI: 36.2 µM
LXFL 529 NSCLC
  TGI: 28.5 µM
SR leukemia
  TGI: 54 µM
SN12C renal
  TGI: 35.6 µM
UACC-257 melanoma
  TGI: 36.9 µM
OVCAR-5 ovarian
  TGI: 27.7 µM
HCT-15 colon
  TGI: 38 µM
IGROV1 ovarian
  TGI: 48.1 µM
RXF 393 renal
  TGI: 33.5 µM
HL-60(TB) leukemia
  TGI: 44 µM
OVCAR-4 ovarian
  TGI: 27.6 µM
RPMI-8226 leukemia
  TGI: 34 µM
EKVX NSCLC
  TGI: 32.5 µM
DLD-1 colon
  TGI: 32 µM
SW-620 colon
  TGI: 31 µM
SF-539 CNS
  TGI: 31.5 µM
TK-10 renal
  TGI: 33.5 µM
CAKI-1 renal
  TGI: 37.7 µM
MOLT-4 leukemia
  TGI: 56.9 µM
K-562 leukemia
  TGI: 50.2 µM
DMS 273 small cell lung
  TGI: 20.1 µM
SF-295 CNS
  TGI: 32.8 µM
U251 CNS
  TGI: 29.8 µM
DMS 114 small cell lung
  TGI: 28.5 µM
COLO 205 colon
  TGI: 12.2 µM
NCI-H226 lung
  TGI: 30.7 µM
OVCAR-8 ovarian
  TGI: 36.3 µM
NCI-H522 lung
  TGI: 28.8 µM
